Assay results: PMC10747112, “Triphenylphosphine Derivatives of Allylbenzenes Express Antitumor and Adjuvant Activity When Solubilized with Cyclodextrin-Based Formulations” (Pharmaceuticals, 2023)

System: HEK293T cells
Assay: FTIR spectroscopy of HEK293T cells during incubation with drug (penetration/adsorption)
Type: cell-based, human
Conditions: 60 min incubation (apiol-PPh3 in M-β-CD) or pre-incubation (doxorubicin controls); 37 °C
From the text: The main cell structural units that contribute to the absorption of IR diapason can be assigned as follows (Figure 5): lipids of the cell membrane (2800–3000 cm^−1), proteins, especially transmembrane (1500–1700 cm^−1), phosphate groups of DNA (1240 cm^−1) and carbohydrates, including lipopolysaccharides (900–1100 cm^−1). Previously, we developed a technique for tracking the penetration and adsorption of the drug into cells using FTIR spectroscopy: dramatic changes in the intensity of the peaks of amide 1 and amide 2 indicate effective penetration of the drug into cells and vice versa.
Here, we present the real-time data of FTIR spectroscopy during the incubation of a suspension of HEK293T cells with apiol-PPh3 in M-β-CD (Figure 5). […] There is only a shift of the peak of amide 1 to the low-frequency region (inserts in Figure 5, the normalized intensity is shown) and amide 2 to the high-frequency region with the simultaneous appearance of the shoulder. This indicates the only adsorption of drug molecules on the cell surface, which is also confirmed by a weak increase in the intensity of the peaks at 2850–3000 cm^−1 corresponding to the valence vibrations of the CH2 groups (lipid bilayer). Thus, PPh3 derivatives show only marginal activity against normal cells.

Question: Which “changes in FTIR amide I and II peak intensity of HEK293T cells (drug penetration)” value does the source give for `COc1cc(CCC[P+](c2ccccc2)(c2ccccc2)c2ccccc2)c(OC)c2c1OCO2` [Apiol-PPh3] here?
Answer: practically no changes in the intensity of the peaks of amide I and II
